Assay results published in patent US20080167314A1, “Condensed Imidazole Compound And Use Thereof” (priority 2004, published 2008).

What was measured:
[1] = biological target: T1, active form p38 MAP kinase (Homo sapiens, UniProt Q16539); experiment: Measurement of the p38 MAP kinase inhibitory activity (32P uptake into Myelin Basic Protein); format: biochemical; settings: 260 ng active form p38 MAP kinase, 1 μg Myelin Basic Protein, 2.5 μM ATP solution, 30° C. for 60 minutes
T1 construct: made in house; host or cells: Sf-21 insect cells, baculovirus BAC-HP38 co-infected with BAC-caMKK3
Experimental: (1) Cloning of Human p38 MAP Kinase Gene and Preparation of Recombinant Baculovirus
Cloning of human p38 MAP kinase gene was performed by a PCR method using a primer set P38-U:
(3) Preparation of Active Form p38 MAP Kinase
The Sf-21 cells were seeded on 100 ml Sf-900II SFM medium (GIBCOBRL) to 1×10^6 cells/mL and cultured at 27° C. for 24 hours. After each 0.2 mL of the virusstock BAC-HP38 of recombinant Baculovirus and BAC-caMKK3 were added, the culturing was further performed for 48 hours. After the cells were separated from the culturing solution by centrifugation (3000 rpm, 10 min), the cells were washed twice with PBS. After the cells were suspended in 10 ml Lysis buffer (25 mM HEPES (pH 7.5), 1% Triton X, 130 mM NaCl, 1 mM EDTA, 1 mM DTT, 25 mM β-glycerophosphate, […], 1 mM APMSF, 1 mM Sodium orthovanadate), the cells were lysed by treating twice with a homogenizer (POLYTRON) at 20000 rpm for 2 minutes. By using Anti-FLAG M2 Affinity Gel (Eastman Chemical), active form p38 MAP kinase was purified from the supernatant obtained by centrifugation (40000 rpm, 45 minutes).
(4) Measurement of the p38 MAP Kinase Inhibitory Activity
2.5 μL of a test compound dissolved in DMSO was added to 37.5 μL reaction solution (25 mM HEPES (pH 7.5), 10 mM Magnesium Acetate) containing 260 ng active form p38 MAP kinase and 1 μg Myelin Basic Protein, which was maintained at 30° C. for 5 minutes. The reaction was initiated by adding 10 μL ATP solution (2.5 μM ATP, 0.1 μCi [g-^32P]ATP). After the reaction was performed at 30° C. for 60 minutes, the reaction was stopped by adding 50 μL 20% TCA solution. After the reaction solution was allowed to stand at 0° C. for 20 minutes, an acid insoluble fraction was transferred to GF/C filter (Packard Japan) using Cell Harvester (Packard Japan) and washed with 250 mM H3PO4. After drying at 45° C. for 60 minutes, […] Microscint 0 (Packard Japan) was added and the radioactivity was measured with a TopCount (Packard Japan). The concentration (IC50 value) necessary for inhibiting uptake of ^32P into an acid insoluble fraction by 50% was calculated with PRISM 2.01 (Graphpad Software).

[2] = test system: TNF-α production in THP-1 cells; experiment: Measurement of TNF-α production inhibitory activity in LPS-stimulated THP-1 cells (ELISA); format: cell-based; settings: Homo sapiens, LPS 5 μg/mL, 4 hours, TNF-α in supernatant by ELISA
Experimental: Measurement of TNF-α Production Inhibitory Activity
After THP-1 cells which had been cultured in PRMI 1640 medium (manufactured by Life Technologies, Inc.) containing 1% non-activated bovine fetal serum (manufactured by Life Technologies, Inc., U.S.A.) and 10 mM HEPES (pH 7.5) was plated on a 96-well plate to 1×10^5 cells/well, 1 μL test compound dissolved in DMSO was added to there. After incubation at 37° C. for 1 hour in a CO2 incubator, LPS (Wako Pure Chemicals) was added to the final concentration 5 μg/mL. After cultured at 37° C. for 4 hours in a CO2 incubator, the supernatant was obtained by centrifugation. The concentration of TNF-α in the supernatant was measured with ELISA (R&D System, Quantikine Kit). The concentration (IC50 value) necessary for inhibiting TNF-α production by 50% was calculated by PRIMS 2.01 (Graphpad Software).

[3] = test system: MMP-13 production in human normal articular chondrocytes; experiment: Measurement of MMP-13 production inhibitory activity in rhIL-1β-stimulated human normal articular chondrocytes (ELISA); format: cell-based; settings: Chondrocyte, rhIL-1β 0.1 ng/mL, 24 hr, MMP-13 in culture supernatant by ELISA
Experimental: Measurement of MMP-13 Production Inhibitory Activity
Human normal articular chondrocytes (Camblex) were grown in a chondrocyte growth medium (CGM: Camblex), and the cells were suspended in a chondrocyte differentiation medium (CDM: Camblex) and plated on a 96 well plate at 2×10^4 cells/well (150 μL/well). After culturing for 3 days under 37° C., 5% CO2 conditions, the culture medium was exchanged to 0.1% BSA added α-modification of Eagle's (α-MEM: Gibco), and the cells were cultured for 4 hr. The compound was added thereto and, after culture for 1 hr, recombinant human IL-1β (rhIL-1β: R&D systems) was added at 0.1 ng/mL. After culture for 24 hr, the culture supernatant was recovered, and the concentration of MMP-13 in the culture supernatant was measured by the ELISA method (Amersham).

T1 sequence (Q16539 whole entry): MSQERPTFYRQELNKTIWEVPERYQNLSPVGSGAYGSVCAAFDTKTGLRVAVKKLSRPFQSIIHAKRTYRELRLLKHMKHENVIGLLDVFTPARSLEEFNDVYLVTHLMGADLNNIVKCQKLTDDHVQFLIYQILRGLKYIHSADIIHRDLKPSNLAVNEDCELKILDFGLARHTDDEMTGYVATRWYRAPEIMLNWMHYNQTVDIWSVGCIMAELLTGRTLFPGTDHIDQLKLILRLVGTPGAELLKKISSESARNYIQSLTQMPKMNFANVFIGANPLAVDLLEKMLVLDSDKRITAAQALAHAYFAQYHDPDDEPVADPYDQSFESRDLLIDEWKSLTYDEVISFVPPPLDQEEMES

Structure (SMILES)	IC50 [1] [µM]	IC50 [2] [µM]	IC50 [3] [µM]
Cc1cccc(-c2nc3cccnn3c2-c2ccnc(NC(=O)C3CC3)c2)c1 [Example compound 20-10, N-{4-[2-(3-methylphenyl)imidazo[1,2-b]pyridazin-3-yl]pyridin-2-yl}cyclopropanecarboxamide]	0.0097	0.0054	0.025
Cc1cccc(-c2nc3cccnn3c2-c2ccnc(NC(=O)c3ccc(F)cc3)c2)c1 [Example compound 20-11, 4-fluoro-N-{4-[2-(3-methylphenyl)imidazo[1,2-b]pyridazin-3-yl]pyridin-2-yl}benzamide]	0.014	0.0038	0.04
CCNC(=O)Nc1cc(-c2c(-c3ccc(F)c(C)c3)nc3cccnn23)ccn1 [Example compound 28-3, N-ethyl-N′-{4-[2-(4-fluoro-3-methylphenyl)imidazo[1,2-b]pyridazin-3-yl]pyridin-2-yl}urea]	0.0079	0.045	0.57
Cc1cc(-c2nc3cccnn3c2-c2ccnc(NC(=O)NC(C)C)c2)ccc1F [Example compound 28-5, N-{4-[2-(4-fluoro-3-methylphenyl)imidazo[1,2-b]pyridazin-3-yl]pyridin-2-yl}-N′-isopropylurea]	0.014	0.064	0.064
